The text below walks through data of US12673961B2 (Agios Pharmaceuticals, Inc., priority 2022, dated 2026).

A value given as a limit tells only on which side of the number the result lay.

In the assay the target is T1, human PAH with the R408W mutation (Homo sapiens, UniProt P00439, R408W).
T1 construct: expressed in transfected cells
T1 sequence (P00439 1-452 R408W): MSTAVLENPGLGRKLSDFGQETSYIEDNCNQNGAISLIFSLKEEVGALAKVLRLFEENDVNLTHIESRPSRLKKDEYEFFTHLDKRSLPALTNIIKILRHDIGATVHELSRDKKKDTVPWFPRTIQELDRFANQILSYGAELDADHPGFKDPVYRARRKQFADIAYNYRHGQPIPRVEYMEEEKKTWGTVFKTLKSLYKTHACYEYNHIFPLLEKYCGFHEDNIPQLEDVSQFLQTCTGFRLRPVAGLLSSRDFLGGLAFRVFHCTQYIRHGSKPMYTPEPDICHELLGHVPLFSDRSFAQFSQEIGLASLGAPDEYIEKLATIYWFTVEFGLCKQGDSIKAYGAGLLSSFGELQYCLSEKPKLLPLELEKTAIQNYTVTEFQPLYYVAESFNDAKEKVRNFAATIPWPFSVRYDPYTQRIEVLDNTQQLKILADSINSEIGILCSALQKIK
As to the kind of experiment: Cell Based Phenylalanine Flux Assay.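 Also: Ten-point dose curve from 2-fold serial dilutions, run in duplicate at 0.5% DMSO final, tracer step used 20 µM sepiapterin and 800 µM labeled phenylalanine.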 Particulars: A375 cells expressing human R408W PAH; 24 hrs compound incubation; 13C-Tyrosine by LC-MS; average where tested multiple times; read-out: AC50.
Turning to `CC(C)(F)c1nnc(C(=O)N2CCc3[nH]cnc3[C@H]2c2cc3cccc(Cl)n3n2)o1` [Example 969, (S)-(4-(7-chloropyrazolo [1,5-a]pyridin-2-yl)-6,7-dihydro-1H-imidazo[4,5-c]pyridin-5(4H)-yl)(5-(2-fluoropropan-2-yl)-1,3,4-oxadiazol-2-yl)methanone], the AC50 (as a rule, the midpoint of the concentration-response curve, whichever way the signal moves) is less than 500 nM.
Take `O=C(c1nnc(-c2cnccn2)o1)N1CCc2[nH]cnc2[C@H]1c1cc2cccc(Cl)n2n1` [Example 979, (S)-(4-(7-chloropyrazolo [1,5-a]pyridin-2-yl)-6,7-dihydro-1H-imidazo[4,5-c]pyridin-5(4H)-yl)(5-(pyrazin-2-yl)-1,3,4-oxadiazol-2-yl)methanone]: the AC50 is less than 500 nM.
As to `O=C(c1nnc(-c2cnn(C(F)F)c2)o1)N1CCc2[nH]cnc2[C@H]1c1cc2cccc(F)n2n1` [Example 984, (S)-(5-(1-(difluoromethyl)-1H-pyrazol-4-yl)-1,3,4-oxadiazol-2-yl)(4-(7-fluoropyrazolo[1,5-a]pyridin-2-yl)-6,7-dihydro-1H-imidazo [4,5-c]pyridin-5(4H)-yl)methanone], the AC50 was in the range of 500 to 1000 nM.
With `Cc1cccn2nc([C@@H]3c4nc[nH]c4CCN3C(=O)c3nnc(C(C)(C)C)o3)cc12` [Example 1022, (S)-(5-(tert-butyl)-1,3,4-oxadiazol-2-yl)(4-(4-methylpyrazolo[1,5-a]pyridin-2-yl)-6,7-dihydro-1H-imidazo[4,5-c]pyridin-5(4H)-yl)methanone], the AC50 was less than 500 nM.
The figure for `Cc1cccn2nc([C@H]3c4nc[nH]c4CCN3C(=O)c3nnc(C(C)(C)C)o3)cc12` [Example 1023, (R)-(5-(tert-butyl)-1,3,4-oxadiazol-2-yl)(4-(4-methylpyrazolo[1,5-a]pyridin-2-yl)-6,7-dihydro-1H-imidazo[4,5-c]pyridin-5(4H)-yl)methanone] is greater than 5000 nM; for `Cn1ccc(-c2nnc(C(=O)N3CCc4[nH]cnc4[C@@H]3c3cc4cccc(C(F)(F)F)n4n3)o2)n1` [Example 1031, (R)-(5-(1-methyl-1H-pyrazol-3-yl)-1,3,4-oxadiazol-2-yl)(4-(7-(trifluoromethyl)pyrazolo[1,5-a]pyridin-2-yl)-6,7-dihydro-1H-imidazo [4,5-c]pyridin-5(4H)-yl)methanone] it is greater than 5000 nM; for `O=C(c1nnc(-c2ccccn2)o1)N1CCc2[nH]cnc2[C@@H]1c1cc2cccc(Cl)n2n1` [Example 1043, (R)-(4-(7-chloropyrazolo [1,5-a]pyridin-2-yl)-6,7-dihydro-1H-imidazo[4,5-c]pyridin-5(4H)-yl)(5-(pyridin-2-yl)-1,3,4-oxadiazol-2-yl) methanone] it is greater than 5000 nM.
As for `Cn1ncnc1C(=O)N1CCc2[nH]cnc2[C@H]1c1cc2c(Cl)cccn2n1` [Example 1050, (S)-(4-(4-chloropyrazolo [1,5-a]pyridin-2-yl)-6,7-dihydro-1H-imidazo[4,5-c]pyridin-5(4H)-yl)(1-methyl-1H-1,2,4-triazol-5-yl)methanone], the half-maximal activity concentration (AC50) was less than 500 nM.
The figure for `Cc1cccn2nc([C@H]3c4nc[nH]c4CCN3C(=O)c3nc(C4CC4)nn3C)cc12` [Example 1059] is greater than 5000 nM.
For `Cn1nc(C(F)(F)F)nc1C(=O)N1CCc2[nH]cnc2[C@H]1c1cc2c(C(F)(F)F)cccn2n1` [Example 1062, (S)-(1-methyl-3-(trifluoromethyl)-1H-1,2,4-triazol-5-yl)(4-(4-(trifluoromethyl)pyrazolo[1,5-a]pyridin-2-yl)-6,7-dihydro-1H-imidazo [4,5-c]pyridin-5(4H)-yl)methanone] the value was less than 500 nM; for `O=C(c1ccnn1C(F)F)N1CCc2[nH]cnc2[C@@H]1c1cc2cccc(Cl)n2n1` [Example 1065, (R)-(4-(7-chloropyrazolo [1,5-a]pyridin-2-yl)-6,7-dihydro-1H-imidazo[4,5-c]pyridin-5(4H)-yl)(1-(difluoromethyl)-1H-pyrazol-5-yl)methanone], 1000 to 5000 nM.
As to `Cn1cc(-c2nnc(C(=O)N3CCc4[nH]cnc4[C@@H]3c3cc4cccc(Cl)n4n3)o2)cn1` [Example 1067, (R)-(4-(7-chloropyrazolo [1,5-a]pyridin-2-yl)-6,7-dihydro-1H-imidazo[4,5-c]pyridin-5(4H)-yl)(5-(1-methyl-1H-pyrazol-4-yl)-1,3,4-oxadiazol-2-yl)methanone], the AC50 is greater than 5000 nM.
As for `Cn1nc(C2CC2)nc1C(=O)N1CCc2[nH]cnc2[C@@H]1c1cc2c(Cl)cccn2n1` [Example 1073, (R)-(4-(4-chloropyrazolo [1,5-a]pyridin-2-yl)-6,7-dihydro-1H-imidazo[4,5-c]pyridin-5(4H)-yl)(3-cyclopropyl-1-methyl-1H-1,2,4-triazol-5-yl)methanone], the AC50 was in the range of 1000 to 5000 nM.
For `Cc1nc(C(=O)N2CCc3[nH]cnc3[C@H]2c2cc3c(Cl)cccn3n2)n(C)n1` [Example 1074, (S)-(4-(4-chloropyrazolo [1,5-a]pyridin-2-yl)-6,7-dihydro-1H-imidazo[4,5-c]pyridin-5(4H)-yl)(1,3-dimethyl-1H-1,2,4-triazol-5-yl)methanone] the value was 500 to 1000 nM.
The figure for `O=C(c1ocnc1C(F)F)N1CCc2[nH]cnc2[C@H]1c1cc2ccc(C(F)(F)F)cn2n1` [Example 1104, (S)-(4-(difluoromethyl)oxazol-5-yl)(4-(6-(trifluoromethyl)pyrazolo [1,5-a]pyridin-2-yl)-6,7-dihydro-1H-imidazo[4,5-c]pyridin-5(4H)-yl)methanone] is less than 500 nM.
With `CC(C)(F)c1nnc(C(=O)N2CCc3[nH]cnc3[C@H]2c2cc3c(Cl)cccn3n2)o1` [Example 1109, (S)-(4-(4-chloropyrazolo [1,5-a]pyridin-2-yl)-6,7-dihydro-1H-imidazo[4,5-c]pyridin-5(4H)-yl)(5-(2-fluoropropan-2-yl)-1,3,4-oxadiazol-2-yl)methanone], the AC50 is less than 500 nM.
The figure for `Cc1ccc2cc([C@@H]3c4nc[nH]c4CCN3C(=O)c3nnc(C(C)(C)C)o3)nn2c1` [Example 1110, (S)-(5-(tert-butyl)-1,3,4-oxadiazol-2-yl)(4-(6-methylpyrazolo[1,5-a]pyridin-2-yl)-6,7-dihydro-1H-imidazo[4,5-c]pyridin-5(4H)-yl)methanone] is 500 to 1000 nM; for `CC(C)(O)c1nc(C(F)F)c(C(=O)N2CCc3[nH]cnc3[C@H]2c2cc3ccc(C(F)(F)F)cn3n2)o1` [Example 1116, (S)-(4-(difluoromethyl)-2-(2-hydroxypropan-2-yl)oxazol-5-yl)(4-(6-(trifluoromethyl)pyrazolo[1,5-a]pyridin-2-yl)-6,7-dihydro-1H-imidazo [4,5-c]pyridin-5(4H)-yl)methanone] it is less than 500 nM.
`CC(C)(O)c1nc(C(F)F)c(C(=O)N2CCc3[nH]cnc3[C@@H]2c2cc3ccc(C(F)(F)F)cn3n2)o1` [Example 1117, (R)-(4-(difluoromethyl)-2-(2-hydroxypropan-2-yl)oxazol-5-yl)(4-(6-(trifluoromethyl)pyrazolo[1,5-a]pyridin-2-yl)-6,7-dihydro-1H-imidazo[4,5-c]pyridin-5(4H)-yl)methanone]: the AC50 is greater than 5000 nM.
Take `O=C(c1nnc(-c2ccn(C(F)F)n2)o1)N1CCc2[nH]cnc2[C@H]1c1cc2c(Cl)cccn2n1` [Example 1118, (S)-(4-(4-chloropyrazolo [1,5-a]pyridin-2-yl)-6,7-dihydro-1H-imidazo[4,5-c]pyridin-5(4H)-yl)(5-(1-(difluoromethyl)-1H-pyrazol-3-yl)-1,3,4-oxadiazol-2-yl)methanone]: the AC50 was less than 500 nM.
Turning to `CC(C)(C)c1nnc(C(=O)N2CCc3[nH]cnc3[C@@H]2c2cc3ccc(F)cn3n2)o1` [Example 1125, (R)-(5-(tert-butyl)-1,3,4-oxadiazol-2-yl)(4-(6-fluoropyrazolo[1,5-a]pyridin-2-yl)-6,7-dihydro-1H-imidazo[4,5-c]pyridin-5(4H)-yl)methanone], the AC50 was in the range of 1000 to 5000 nM.
The figure for `Cn1nc(C(F)F)nc1C(=O)N1CCc2[nH]cnc2[C@@H]1c1cc2ccc(C(F)(F)F)cn2n1` [Example 1127, (R)-(3-(difluoromethyl)-1-methyl-1H-1,2,4-triazol-5-yl)(4-(6-(trifluoromethyl)pyrazolo[1,5-a]pyridin-2-yl)-6,7-dihydro-1H-imidazo [4,5-c]pyridin-5(4H)-yl)methanone] is 1000 to 5000 nM; for `O=C(c1ccnn1C(F)F)N1CCc2[nH]cnc2[C@@H]1c1cc2cc(C(F)(F)F)ccn2n1` [Example 1133, (R)-(1-(difluoromethyl)-1H-pyrazol-5-yl)(4-(5-(trifluoromethyl)pyrazolo [1,5-a]pyridin-2-yl)-6,7-dihydro-1H-imidazo[4,5-c]pyridin-5(4H)-yl)methanone] it is 1000 to 5000 nM.
For `O=C(c1nnc(C2CC2)o1)N1CCc2[nH]cnc2[C@@H]1c1cc2cccc(Cl)n2n1` [Example 1136, (R)-(4-(7-chloropyrazolo [1,5-a]pyridin-2-yl)-6,7-dihydro-1H-imidazo[4,5-c]pyridin-5(4H)-yl)(5-cyclopropyl-1,3,4-oxadiazol-2-yl)methanone] the value was 1000 to 5000 nM; for `O=C(c1nnc(C2CC2)o1)N1CCc2[nH]cnc2[C@H]1c1cc2cccc(Cl)n2n1` [Example 1137], 500 to 1000 nM.
Turning to `O=C(c1ccnn1C(F)F)N1CCc2[nH]cnc2[C@@H]1c1cc2ccc(C(F)(F)F)cn2n1` [Example 1139, (R)-(1-(difluoromethyl)-1H-pyrazol-5-yl)(4-(6-(trifluoromethyl)pyrazolo [1,5-a]pyridin-2-yl)-6,7-dihydro-1H-imidazo[4,5-c]pyridin-5(4H)-yl)methanone], the AC50 lay within 1000 to 5000 nM.
